Test results taken from PubChem BioAssay (NCI).
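How tested: cells in 96-well plates exposed to compound for 48 hours at five concentrations. TGI marks complete inhibition of growth.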

How the values were obtained:
Assay in all cases: NCI-60 cell line screen, 48 h
[1] = test system: NCI-H226 lung
[2] = test system: PC-3 prostate
[3] = test system: CAKI-1 renal
[4] = test system: HOP-62 NSCLC
[5] = test system: OVCAR-3 ovarian
[6] = test system: SK-MEL-2 melanoma
[7] = test system: OVCAR-8 ovarian
[8] = test system: SK-MEL-28 melanoma
[9] = test system: UACC-62 melanoma
[10] = test system: BT-549 breast
[11] = test system: EKVX NSCLC
[12] = test system: NCI-H460 lung
[13] = test system: HL-60(TB) leukemia
[14] = test system: MCF7 breast
[15] = test system: NCI-H23 lung
[16] = test system: HT29 colon
[17] = test system: MDA-N
[18] = test system: MALME-3M melanoma
[19] = test system: IGROV1 ovarian

Structure (SMILES)	TGI [1] [µM]	TGI [2] [µM]	TGI [3] [µM]	TGI [4] [µM]	TGI [5] [µM]	TGI [6] [µM]	TGI [7] [µM]	TGI [8] [µM]	TGI [9] [µM]	TGI [10] [µM]	TGI [11] [µM]	TGI [12] [µM]	TGI [13] [µM]	TGI [14] [µM]	TGI [15] [µM]	TGI [16] [µM]	TGI [17] [µM]	TGI [18] [µM]	TGI [19] [µM]
O=[N+]([O-])c1ccc(Oc2c(Cl)cc(S(=O)(=O)/N=C(\NO)Nc3ccc(Cl)cc3)cc2Cl)c(Cl)c1	48.3	26.7	28.3	30.3	24.7	35.7	54.1	47.6	27.5	29	28	37.2	51.7	34	34.5	30.5	28.9	28.3	–
NC(=O)c1ncn(C2OC(CO)C(O)C2O)c1NC=O (stereo not drawn)	> 100	> 100	> 100	> 100	> 100	> 100	> 100	> 100	> 100	> 100	> 100	> 100	> 100	> 100	> 100	> 100	> 100	> 100	> 100
Cc1c2c(OCC(O)CN3CCN(c4ccccc4)CC3)nn(C)c(=O)c2c(C)n1-c1ccccc1 (stereo not drawn)	54.5	55.9	> 100	> 100	45.5	33.1	> 100	40.2	32	47.6	> 100	57.7	49.1	36.5	46.4	46.3	35.4	40.7	> 100
COC(=O)C1=C(OC(=O)/C(=C/c2ccccc2)c2ccc(Cl)cc2)C(C(=O)OC)[C@@]2(O)[C@@H](C(=O)OC)[C@H](C)C[C@@H]1[C@@H]2C(=O)OC (stereo partly drawn)	> 100	> 100	> 100	> 100	> 100	> 100	> 100	> 100	> 100	> 100	> 100	> 100	> 100	> 100	> 100	> 100	> 100	> 100	> 100
Clc1ccc(C(Cc2cccc(Cl)c2)c2c(Cl)nc(N3CCNCC3)nc2Cl)cc1 (stereo not drawn)	> 100	30.6	24.4	28.9	29.2	40.9	38.4	33.6	36.7	39.1	> 100	30.9	23.1	24.6	34.1	> 100	29.6	26.4	> 100
OC[P+](CO)(CO)C12CC3CC(CC(C3)C1)C2	> 100	> 100	> 100	> 100	> 100	> 100	> 100	> 100	> 100	> 100	> 100	> 100	35.4	> 100	> 100	> 100	> 100	> 100	> 100
